PMC2965769 (PLoS Pathogens, 2010)
*: point of attachment. X2 = CC(C)CCC[C@@H](C)[C@H]1CC[C@H]2[C@@H]3CC=C4C[C@@H](OC(=O)CCOCCOCCOCCOCCNC(=O)C*)CC[C@]4(C)[C@H]3CC[C@]12C; X1 = CC(C)CCC[C@@H](C)[C@H]1CC[C@H]2[C@@H]3CC=C4C[C@@H](OC(=O)C*)CC[C@]4(C)[C@H]3CC[C@]12C

Tested on: NiV G/F pseudotyped viruses
Details: 24 h

Substance: Ac-VALDPIDISIVLNKAKSDLEESKEWIRRSNQKLDSIGSGSGC(X2)-NH2 (N-terminus and C-terminus assumed) [V-PEG4-chol]
- IC50: ~0.02 nM

Substance: Ac-VALDPIDISIVLNKAKSDLEESKEWIRRSNQKLDSIGSGSGC(X1)-NH2 (N-terminus and C-terminus assumed) [V-chol]
- IC50: ~0.02 nM
